This note sets out measurements from patent EP4775583A1, “COMPOUND OR SALT THEREOF, METHOD FOR PRODUCING SAME, PHARMACEUTICAL COMPOSITION CONTAINING COMPOUND OR SALT THEREOF, AND METHOD FOR PRODUCING SAME” (Celaid Therapeutics Inc., priority 2023, dated 2025).

The test system of assay [1] is mouse neuroblastoma N2a cells. The assay can be described thus: Neurite outgrowth assay. The assay is classed as cell-based. Particulars: for neurite outgrowth / neurite outgrowth-promoting activity, comparison between compounds: 0.2 µM, 48 h treatment (Fig. 21(B)); for neurite outgrowth-promoting activity, comparison between compounds: structure-activity comparison; for dose-dependent neurite outgrowth activity: 0.02 - 2 µM, 48 h treatment (Fig. 21(C)). As to the method: The Mouse Neuro-2a (N2a) cell line was obtained from the Japanese Collection of Research Bioresources (JCRB) Cell Bank. The N2a cells were plated at a concentration of 1 × 10^4 cells/mL in Dulbecco's modified Eagle's medium (hereinafter also referred to as DMEM) containing high glucose, 10% FBS, 100 U/mL penicillin, and 100 µg/mL streptomycin at 37 °C in a humidified atmosphere of 5% CO2.
For the neurite outgrowth assay, the medium was changed to DMEM supplemented with 2% FBS. After incubation with the test compounds, cell morphology was examined using a microscope (Olympus CKX41).
The differentiated cells were defined as those with at least one neurite that was longer than twice the diameter of the cell body. The results were expressed as the percentage of differentiated cells among the counted cells. These experiments were carried out in triplicate.

Assay [2] concerns the target T1, KDM5A (Mus musculus, UniProt Q3UXZ9).
T1 construct: Western Blot-Detection of KDM5A Levels in N2a Cells; endogenous in cells; host or cells: N2a (mouse neuroblastoma neuro-2a) cells
Kind of assay: Western blot detection of KDM5A levels (degradation). The conditions noted are these: N2a cells. Format: cell-based. Here is the method:
(§1) The N2a cells (5 × 10^5 cells/2 mL/dish) were treated for 24 h with the test compounds at the indicated concentrations in a 10% FBS-supplemented cell culture medium, and cells were collected and extracted with SDS sampling buffer. Protein concentrations of the lysates were determined using a BCA protein assay. Equivalent amounts of protein from each lysate were resolved in 5% to 20% SDS-polyacrylamide gels, and bands were transferred onto PVDF membranes (Millipore, #IPVH00010 for β-actin detection, #ISEQ10100 for H3, H3K4me3, and H3K27Ac detection). After blocking with TBS-T containing 5% skimmed milk, the transblotted membranes were probed with primary antibodies. The following antibodies were used as the primary antibodies: rabbit monoclonal KDM5A antibody (CST #3876, 1 : 1000 dilution); mouse monoclonal β-actin antibody (Santa Cruz, #sc-47778, 1 : 2000 dilution); rabbit polyclonal H3K4me3 antibody (Abcam, #ab8580, 1 : 5000 dilution); rabbit polyclonal H3K27Ac antibody (Abcam, #ab4729, 1 : 1000 dilution); or rabbit polyclonal histone H3 antibody (Abcam, #ab1791, 1 : 200000 dilution). […]

Assay [3] deals with KDM5A (Homo sapiens, UniProt P29375). Kind of assay: KDM5A inhibitory activity, in vitro assay. The conditions noted are these: in vitro assay (Fig. 27). The assay is classed as biochemical.
The test system of the next assay is H3K27Ac. The assay can be described thus: Western blot detection of H3K27Ac levels. The conditions noted are these: N2a cells, 24 h treatment (Fig. 26). The assay is classed as cell-based, Mouse. As to the method:
as §1
Background: Immunoblotting shows a protein as a band on a membrane.

Another assay concerns the target HDAC1 (Homo sapiens, UniProt Q13547). The assay can be described thus: HDAC1 inhibitory activity, in vitro assay. Format: biochemical. The conditions noted are these: in vitro assay (Fig. 27).
The test system of another assay is H3K4me3. Kind of assay: Western blot detection of H3K4me3 levels. The assay is classed as cell-based, Mouse. The conditions noted are these: N2a cells, 24 h treatment (Fig. 26). Here is the method:
as §1

The structures appear in SMILES notation. Entries after “also recorded” stand apart in the source; their conditions may differ. Where a name gives a salt, the structure may show the parent alone.

T1 sequence (Q3UXZ9 whole entry): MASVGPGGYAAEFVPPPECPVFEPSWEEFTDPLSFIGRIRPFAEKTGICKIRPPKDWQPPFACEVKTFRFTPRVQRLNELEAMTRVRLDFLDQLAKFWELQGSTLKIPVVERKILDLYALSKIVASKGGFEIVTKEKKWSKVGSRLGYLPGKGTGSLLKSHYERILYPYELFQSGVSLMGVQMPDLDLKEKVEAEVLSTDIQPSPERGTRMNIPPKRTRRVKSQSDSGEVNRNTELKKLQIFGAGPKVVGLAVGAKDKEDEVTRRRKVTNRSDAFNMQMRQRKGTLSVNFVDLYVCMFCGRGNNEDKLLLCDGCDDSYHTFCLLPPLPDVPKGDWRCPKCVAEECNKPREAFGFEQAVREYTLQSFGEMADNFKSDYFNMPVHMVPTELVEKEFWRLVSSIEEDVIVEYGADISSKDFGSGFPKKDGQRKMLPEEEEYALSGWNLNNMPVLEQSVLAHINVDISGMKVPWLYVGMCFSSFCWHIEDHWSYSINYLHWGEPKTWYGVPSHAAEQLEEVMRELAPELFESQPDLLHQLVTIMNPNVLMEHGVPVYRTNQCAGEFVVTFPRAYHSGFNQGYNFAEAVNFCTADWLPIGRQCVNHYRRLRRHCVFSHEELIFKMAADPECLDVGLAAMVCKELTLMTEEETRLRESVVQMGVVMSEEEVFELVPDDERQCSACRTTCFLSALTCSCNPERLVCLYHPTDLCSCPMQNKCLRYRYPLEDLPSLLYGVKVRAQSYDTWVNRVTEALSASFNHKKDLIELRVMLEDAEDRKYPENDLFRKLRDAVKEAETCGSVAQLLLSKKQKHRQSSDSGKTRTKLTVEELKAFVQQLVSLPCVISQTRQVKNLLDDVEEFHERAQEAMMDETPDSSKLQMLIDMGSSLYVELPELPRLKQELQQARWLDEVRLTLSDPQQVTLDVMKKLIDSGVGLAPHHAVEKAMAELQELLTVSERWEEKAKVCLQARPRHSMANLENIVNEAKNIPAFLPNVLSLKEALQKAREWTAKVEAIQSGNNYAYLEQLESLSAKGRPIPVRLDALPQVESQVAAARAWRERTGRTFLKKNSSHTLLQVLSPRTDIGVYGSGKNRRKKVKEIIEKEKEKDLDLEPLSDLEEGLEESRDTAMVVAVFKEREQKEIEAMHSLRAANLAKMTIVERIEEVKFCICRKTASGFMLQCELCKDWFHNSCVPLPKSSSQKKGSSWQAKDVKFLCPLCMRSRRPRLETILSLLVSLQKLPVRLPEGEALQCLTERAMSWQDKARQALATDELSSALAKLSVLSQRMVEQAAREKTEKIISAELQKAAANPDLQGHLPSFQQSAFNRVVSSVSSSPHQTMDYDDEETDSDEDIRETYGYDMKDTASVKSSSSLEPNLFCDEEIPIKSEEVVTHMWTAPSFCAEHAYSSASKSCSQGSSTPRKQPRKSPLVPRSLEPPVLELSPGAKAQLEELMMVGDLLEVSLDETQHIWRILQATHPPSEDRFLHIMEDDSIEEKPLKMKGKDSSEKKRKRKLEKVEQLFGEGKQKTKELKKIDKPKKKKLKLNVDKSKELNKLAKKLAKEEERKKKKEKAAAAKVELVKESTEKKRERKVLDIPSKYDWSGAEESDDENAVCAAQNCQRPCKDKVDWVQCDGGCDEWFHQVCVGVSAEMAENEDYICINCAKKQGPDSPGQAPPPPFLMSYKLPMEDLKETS
Sequence of HDAC1 (Q13547 whole entry, species assumed): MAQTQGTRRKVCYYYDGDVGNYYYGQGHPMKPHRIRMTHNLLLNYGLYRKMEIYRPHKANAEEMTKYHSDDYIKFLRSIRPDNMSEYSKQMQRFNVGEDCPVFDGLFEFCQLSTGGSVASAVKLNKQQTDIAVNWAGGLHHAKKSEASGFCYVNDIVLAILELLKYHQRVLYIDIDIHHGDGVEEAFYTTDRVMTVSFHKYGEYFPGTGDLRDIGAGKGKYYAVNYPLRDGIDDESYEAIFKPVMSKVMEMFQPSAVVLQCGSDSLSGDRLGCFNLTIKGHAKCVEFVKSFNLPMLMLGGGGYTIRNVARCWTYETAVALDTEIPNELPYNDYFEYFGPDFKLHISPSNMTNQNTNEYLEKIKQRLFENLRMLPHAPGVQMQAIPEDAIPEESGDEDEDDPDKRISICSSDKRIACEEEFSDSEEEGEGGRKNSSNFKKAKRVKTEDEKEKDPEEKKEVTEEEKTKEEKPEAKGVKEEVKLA
Sequence of KDM5A (Homo sapiens, UniProt P29375) (P29375 whole entry, species assumed): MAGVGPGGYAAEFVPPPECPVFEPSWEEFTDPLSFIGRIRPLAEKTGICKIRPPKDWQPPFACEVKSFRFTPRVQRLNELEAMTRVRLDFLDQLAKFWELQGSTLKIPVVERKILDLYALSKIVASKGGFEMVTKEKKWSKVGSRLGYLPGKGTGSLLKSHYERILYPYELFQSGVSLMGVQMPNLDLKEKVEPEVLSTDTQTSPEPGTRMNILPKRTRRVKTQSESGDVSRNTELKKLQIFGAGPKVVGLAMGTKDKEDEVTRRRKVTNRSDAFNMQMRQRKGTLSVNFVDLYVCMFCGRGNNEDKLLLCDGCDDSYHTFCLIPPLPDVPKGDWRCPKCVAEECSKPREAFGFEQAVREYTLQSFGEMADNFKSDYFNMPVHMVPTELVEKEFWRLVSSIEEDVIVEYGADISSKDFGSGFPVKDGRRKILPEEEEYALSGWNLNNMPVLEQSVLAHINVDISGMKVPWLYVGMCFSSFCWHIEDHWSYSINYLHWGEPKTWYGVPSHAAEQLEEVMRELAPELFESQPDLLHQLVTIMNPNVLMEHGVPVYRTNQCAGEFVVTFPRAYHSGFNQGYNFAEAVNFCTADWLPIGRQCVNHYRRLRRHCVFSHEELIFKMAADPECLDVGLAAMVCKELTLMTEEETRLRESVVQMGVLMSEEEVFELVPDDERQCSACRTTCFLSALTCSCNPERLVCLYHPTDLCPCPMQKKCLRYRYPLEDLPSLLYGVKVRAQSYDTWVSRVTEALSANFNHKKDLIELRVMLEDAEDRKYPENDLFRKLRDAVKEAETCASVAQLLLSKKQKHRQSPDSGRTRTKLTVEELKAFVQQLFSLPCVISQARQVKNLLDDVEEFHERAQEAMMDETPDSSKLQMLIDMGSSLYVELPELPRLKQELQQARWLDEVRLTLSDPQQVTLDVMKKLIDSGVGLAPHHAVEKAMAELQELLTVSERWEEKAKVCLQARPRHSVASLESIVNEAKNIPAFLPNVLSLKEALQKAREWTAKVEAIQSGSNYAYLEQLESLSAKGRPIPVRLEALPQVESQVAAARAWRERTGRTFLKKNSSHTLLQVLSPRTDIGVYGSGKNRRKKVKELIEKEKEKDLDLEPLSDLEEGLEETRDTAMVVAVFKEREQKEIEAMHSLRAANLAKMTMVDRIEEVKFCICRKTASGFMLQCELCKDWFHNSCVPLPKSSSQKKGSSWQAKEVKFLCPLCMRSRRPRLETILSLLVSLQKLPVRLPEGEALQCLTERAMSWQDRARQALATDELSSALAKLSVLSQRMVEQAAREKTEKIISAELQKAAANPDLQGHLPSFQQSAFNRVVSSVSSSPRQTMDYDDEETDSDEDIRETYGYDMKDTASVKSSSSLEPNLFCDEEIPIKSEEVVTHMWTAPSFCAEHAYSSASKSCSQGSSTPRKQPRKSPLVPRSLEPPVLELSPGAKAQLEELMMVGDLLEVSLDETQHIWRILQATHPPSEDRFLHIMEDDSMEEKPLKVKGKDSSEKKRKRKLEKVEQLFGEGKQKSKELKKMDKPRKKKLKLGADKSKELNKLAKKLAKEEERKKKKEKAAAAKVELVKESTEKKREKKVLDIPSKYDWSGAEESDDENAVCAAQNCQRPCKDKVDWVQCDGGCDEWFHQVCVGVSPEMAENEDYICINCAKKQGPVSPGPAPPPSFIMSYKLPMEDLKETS

As for `CC(C)c1c(-c2ccc(CCN(C)CCCCCCc3ccc(C(=O)NCCOCCOCCOc4cccc5c4C(=O)N(C4CCC(=O)NC4=O)C5=O)cc3)cc2)[nH]c2c(C#N)cnn2c1=O` (centres unmarked) [Compound 20a], the neurite outgrowth result in assay [1] (N2a cells) was “promoted neurite outgrowth”.

With `CC(C)c1c(-c2ccc(CCN(C)CCCCCCc3ccc(C(=O)NCCCCCCOc4cccc5c4C(=O)N(C4CCC(=O)NC4=O)C5=O)cc3)cc2)[nH]c2c(C#N)cnn2c1=O` (centres unmarked) [Compound 23a, 4-(6-{[4-(3-cyano-6-isopropyl-7-oxo-4,7-dihydropyrazolo[1,5-a]pyrimidin-5-yl)phenethyl](methyl)amino}hexyl)-N-(6-{[2-(2,6-dioxopiperidin-3-yl) -1, 3 - dioxoindolin-4-yl]oxy}hexyl) benzamide hydrochloride], in assay [1] (N2a cells), the neurite outgrowth result was “promoted neurite outgrowth”.

Consider `CC(C)c1c(-c2ccc(CCN(C)CCCCCCc3cccc(C(=O)NCCCCCCOc4cccc5c4C(=O)N(C4CCC(=O)NC4=O)C5=O)c3)cc2)[nH]c2c(C#N)cnn2c1=O` (centres unmarked) [Compound 23b, 3-(6-{[4-(3-Cyano-6-isopropyl-7-oxo-4,7-dihydropyrazolo[1,5-a]pyrimidin-5-yl)phenethyl](methyl)-amino}hexyl)-N-(6-{[2-(2,6-dioxopiperidin-3-yl)-1,3-dioxoindolin-4-yl]oxy}hexyl)benzamide Hydrochloride], for which the “KDM5A levels on co-treatment with proteasome inhibitor MG-132” value on KDM5A [2] (24 h co-treatment with MG-132 (Fig. 25(C), 25(D))) is listed as “disturbed by the proteasome inhibitor MG-132”. In addition, on KDM5A [2] (24 h treatment (Fig. 25(A), 25(B))), the KDM5A levels entry is on record as “decreased KDM5A levels in a dose-dependent manner”. Further, the KDM5A inhibitory activity entry on KDM5A [3] is “strongly inhibited KDM5A”. Besides, in the assay on H3K27Ac, the H3K27Ac levels result was “upregulated H3K27Ac levels”. In addition, the HDAC1 inhibitory activity entry on HDAC1 is reported as “without affecting HDAC1”. In addition, in the assay with H3K4me3, the H3K4me3 levels result is reported as “dose-dependent accumulation of H3K4me3 levels”. The “neurite outgrowth-promoting activity, overall assessment” value in assay [1] (N2a cells (Fig. 21(B))) is listed as “remarkable neurite outgrowth-promoting activity”. Also, in assay [1] (N2a cells, 0.02 µM, 24, 48 and 72 hours (Fig. 21(D))), the “time-dependent neurite outgrowth activity (number of neurite cells)” value is recorded as “increased the number of neurite cells in a time-dependent manner”. In addition, in assay [1] (N2a cells), the neurite outgrowth result is given as “promoted neurite outgrowth” and the “dose-dependent neurite outgrowth activity” value is given as “promoted neurite outgrowth”. Further, the “neurite outgrowth-promoting activity, comparison between compounds” value in assay [1] (N2a cells, Hydrochloride) was “superior to those of the para-substituent compounds 20a and 23a; also recorded: slightly better than that of the polyethylene linker compound 20b”.

With `CC(C)c1c(-c2ccc(CCN(C)CCCCCCC(=O)NCCOCCOCCOc3cccc4c3C(=O)N(C3CCC(=O)NC3=O)C4=O)cc2)[nH]c2c(C#N)cnn2c1=O` (centres unmarked) [Compound 14a, hydrochloride], in assay [1] (N2a cells), the neurite outgrowth entry was “promoted neurite outgrowth”.

With `CC(C)c1c(-c2ccc(CCN(C)CCCCCCCCCC(=O)NCCOCCOCCOc3cccc4c3C(=O)N(C3CCC(=O)NC3=O)C4=O)cc2)[nH]c2c(C#N)cnn2c1=O` (centres unmarked) [Compound 14b, 10-{[4-(3-Cyano-6-isopropyl-7-oxo-4,7-dihydropyrazolo[1,5-a]pyrimidin-5-yl)phenethyl](methyl)-amino}-N-{2-[2-(2,6-dioxopiperidin-3-yl)-1,3-dioxoindolin-4-yl]oxy}ethoxy}ethyl}decanamide Hydrochloride], in assay [1] (N2a cells), the neurite outgrowth entry was “promoted neurite outgrowth” and the “neurite outgrowth-promoting activity, comparison between compounds” value is listed as “stronger neurite outgrowth-promoting activity than compound 14a”.

`O=C1CCC(N2C(=O)c3ccccc3C2=O)C(=O)N1` (centres unmarked) [Compound 26, thalidomide, reference compound]: the “dose-dependent neurite outgrowth activity” value in assay [1] (N2a cells) was “did not show strong neurite outgrowth activity relative to Compounds 20b and 23b”.
